Where a name gives a salt, the structure may show the parent alone. Values belong to the compound of their own block, whether it stands above or below them.
What was measured:
Left atrium = assay: Inotropic effect on isolated electrically stimulated left atrium; set-up: species or system guineapig; settings: Cavia porcellus, electrically stimulated at fixed rhythm, percentage change; for inhibition at 1 µg/mL: 1 ug/ml; for inhibition at 0.3 µg/mL: 0.3 ug/ml
Protocol: (§1) c) Finally, the chronotropic and inotropic activities were measured on isolated guineapig atria placed in isolated organ cells. The organs are then connected to force gauges. The right atrium, beating in a spontaneous rhythm, enables the negative chronotropic effects of the products to be assessed. As regards the left atria, these are electrically stimulated at a fixed rhythm so as to evaluate actions on the inotropic effect. The percentage changes are recorded in Table V for the compounds A, B, G and J, by way of non-limiting examples.

Right atrium = assay: Chronotropic effect on isolated spontaneously beating right atrium; set-up: species or system guineapig; settings: Cavia porcellus, spontaneous rhythm, percentage change; for inhibition at 1 µg/mL: 1 ug/ml; for inhibition at 0.3 µg/mL: 0.3 ug/ml
Protocol: as §1

Solubility in water = type: physicochemical
[1] = tested on: rats anesthetized with pentobarbital sodium; assay: Bradycardic effect and intracardiac conduction times (ECG, arterial pressure) in pentobarbital-anesthetized rats; type: in vivo; settings: for % ABP (mean arterial blood pressure) / % HR (heart rate): % change at peak of action; for % modification of the ECG intervals: PQ (atrioventricular conduction time) / % modification of the ECG intervals: QRS (intraventricular conduction time) / % modification of the ECG intervals: QTS / % modification of the ECG intervals: TP (electrocardiac diastole): at peak of action
Protocol: b) The bradycardic effect and the analysis of the intracardiac conduction times were studied on rats anesthetized with pentobarbital sodium (40 mg/kg ip) and left in spontaneous ventilation. The electrocardiogram is recorded simultaneously in the standard leads OI, OII and OIII; the arterial blood pressure is measured on a femoral artery. The percentage changes are considered at the peak of action. The results relating to the compounds A, B, J, G and N are given in Table III, by way of non-limiting example.

anesthetized rats = assay: Coronary ligation in anesthetized rats (antiarrhythmic activity and heart rate); type: in vivo; settings: for % fall in heart rate after 1 min: 1 min after injection; for % fall in heart rate after 1 min / % fall in heart rate after 10 min: % change relative to controls; for % fall in heart rate after 10 min: 10 min after injection; for % fall in arrhythmias: coronary ligation
Description: a) The technique of coronary ligation in anesthetized rats according to Clark et al. (J. Pharm. […] SC denotes the percentage reduction in disorders of rhythm induced by these compounds, n denotes the number of animals.

[2] = Acute intravenous toxicity in mice (LD50, Miller and Tainter); settings: mouse, in vivo, mice weighing 20 to 22 g
Protocol: The chemical compounds described above were subjected to toxicity controls. This study was carried out on conventional mice weighing 20 to 22 g. The watersoluble salts of the compounds of general formula I were administered intravenously. The 50% lethal dose (LD50) is calculated according to the method of Miller and Tainter (Proc. Soc. Exp. Biol. Med. 1944, 57, 261).

conscious dogs = assay: Bradycardic effect in conscious dogs with hydralazine-raised heart rate (Kobinger and Lillie); type: in vivo; settings: for Heart rate after / Heart rate before / Heart rate Change: 1 mg/kg iv; for Heart rate after: after test product; for Heart rate after / Heart rate Change: hydralazine tachycardia; for Heart rate before: before test product, after hydralazine 1 mg/kg iv
Protocol: When the latter has stabilized, the test products are injected intravenously.

solubility (Solubility in water): 90 mg/mL
SMILES: COc1ccc(CCN(C)CCCN2COc3cc(C)ccc3C2=O)cc1OC.Cl [Compound G, 2,3-Dihydro-3-{3-[(methyl)(3,4-dimethoxyphenethyl)amino]propyl}-7-methyl-4H-1,3-benzoxazin-4-one hydrochloride]
inhibition at 1 µg/mL (Left atrium): 4%
inhibition at 1 µg/mL (Right atrium): 35%
% ABP (mean arterial blood pressure) ([1]; 1 mg/kg iv): -10%
% HR (heart rate) ([1]; 1 mg/kg iv): -18%
% modification of the ECG intervals: PQ (atrioventricular conduction time) ([1]; 1 mg/kg iv): +10%
% modification of the ECG intervals: QRS (intraventricular conduction time) ([1]; 1 mg/kg iv): +5%
% modification of the ECG intervals: QTS ([1]; 1 mg/kg iv): +12%
% modification of the ECG intervals: TP (electrocardiac diastole) ([1]; 1 mg/kg iv): +32%
% fall in heart rate after 1 min (anesthetized rats; 2.5 mg/kg iv): -39%
% fall in heart rate after 10 min (anesthetized rats; 2.5 mg/kg iv): -16%
% fall in arrhythmias (anesthetized rats; 2.5 mg/kg iv): -1%

solubility (Solubility in water): 120 mg/mL
SMILES: COc1ccc(CCN(C)CCCN2COc3cc(Cl)ccc3C2=O)cc1OC.Cl [Compound J, 7-Chloro-2,3-dihydro-3-{3-[(methyl)(3,4-dimethoxyphenethyl)amino]propyl}-4H-1,3-benzoxazin-4-one hydrochloride]
inhibition at 1 µg/mL (Left atrium): 11%
inhibition at 1 µg/mL (Right atrium): 29%
% ABP (mean arterial blood pressure) ([1]; 1 mg/kg iv): -13%
% HR (heart rate) ([1]; 1 mg/kg iv): -16%
% modification of the ECG intervals: PQ (atrioventricular conduction time) ([1]; 1 mg/kg iv): +9%
% modification of the ECG intervals: QRS (intraventricular conduction time) ([1]; 1 mg/kg iv): +12%
% modification of the ECG intervals: QTS ([1]; 1 mg/kg iv): +12%
% modification of the ECG intervals: TP (electrocardiac diastole) ([1]; 1 mg/kg iv): +29%
% fall in heart rate after 1 min (anesthetized rats; 2.5 mg/kg iv): -32%
% fall in heart rate after 10 min (anesthetized rats; 2.5 mg/kg iv): -12%
% fall in arrhythmias (anesthetized rats; 2.5 mg/kg iv): -37%

SMILES: COc1ccc(CCN(C)CCCN2C(=O)c3cc(OC)c(OC)cc3OC2C)cc1OC.Cl (centres unmarked) [Compound M, 2,3-Dihydro-6,7-dimethoxy-3-{3-[(methyl)(3,4-dimethoxyphenethyl)amino]propyl}-2-methyl-4H-1,3-benzoxazin-4-one hydrochloride]
solubility (Solubility in water): 100 mg/mL

SMILES: COc1cc2c(cc1OC)C(=O)N(CCCN(C)CCc1ccccc1)CO2.Cl [Compound O, 2,3-Dihydro-6,7-dimethoxy-3-{3-[(methyl)(phenethyl)amino]propyl}-4H-1,3-benzoxazin-4-one hydrochloride]
solubility (Solubility in water): > 100 mg/mL

solubility (Solubility in water): 100 mg/mL
SMILES: CCCCCCCC1Oc2cc(OC)c(OC)cc2C(=O)N1CCCN(C)CCc1ccc(OC)c(OC)c1 (centres unmarked) [Compound N, hydrochloride]
% ABP (mean arterial blood pressure) ([1]; 1 mg/kg iv): -9%
% HR (heart rate) ([1]; 1 mg/kg iv): -12%
% modification of the ECG intervals: PQ (atrioventricular conduction time) ([1]; 1 mg/kg iv): +7%
% modification of the ECG intervals: QRS (intraventricular conduction time) ([1]; 1 mg/kg iv): +12%
% modification of the ECG intervals: QTS ([1]; 1 mg/kg iv): +10%
% modification of the ECG intervals: TP (electrocardiac diastole) ([1]; 1 mg/kg iv): +21%
% fall in heart rate after 1 min (anesthetized rats; 2.5 mg/kg iv): -4%
% fall in heart rate after 10 min (anesthetized rats; 2.5 mg/kg iv): -6%
% fall in arrhythmias (anesthetized rats; 2.5 mg/kg iv): -72%

SMILES: COc1ccc2c(c1)C(=O)N(CCCN(C)CCc1ccc(OC)c(OC)c1)CO2.Cl [Compound D, 2,3-Dihydro-3-{3-[(methyl)(3,4-dimethoxyphenethyl)amino]propyl}-6-methoxy-4H-1,3-benzoxazin-4-one hydrochloride]
solubility (Solubility in water): > 100 mg/mL

SMILES: COc1ccc(CCNCCCN2COc3cc(OC)c(OC)cc3C2=O)cc1OC.Cl [Compound P, 2,3-Dihydro-6,7-dimethoxy-3-[3-(3,4-dimethoxyphenethylamino)propyl]-4H-1,3-benzoxazin-4-one hydrochloride]
solubility (Solubility in water): > 100 mg/mL

SMILES: COc1ccc(CCN(C)CCCN2COc3ccc(C)cc3C2=O)cc1OC.Cl [Compound F, 2,3-Dihydro-3-{3-[(methyl)(3,4-dimethoxyphenethyl)amino]propyl}-6-methyl-4H-1,3-benzoxazin-4-one hydrochloride]
solubility (Solubility in water): ~100 mg/mL

SMILES: COc1ccc(CCN(C)CCCN2COc3ccccc3C2=O)cc1OC.Cl [Compound A, 2,3-Dihydro-3-{3-[(methyl)(3,4-dimethoxyphenethyl)amino]propyl}-4H-1,3-benzoxazin-4-one hydrochloride]
inhibition at 0.3 µg/mL (Left atrium): 16%
inhibition at 1 µg/mL (Left atrium): 15%
inhibition at 0.3 µg/mL (Right atrium): 15%
inhibition at 1 µg/mL (Right atrium): 19%
LD50 [2]: 27 mg/kg
Heart rate after (conscious dogs): 140 bts/min
Heart rate before (conscious dogs): 215 bts/min
Heart rate Change (conscious dogs): -35%
solubility (Solubility in water): 100 mg/mL
% ABP (mean arterial blood pressure) ([1]; 3 mg/kg iv): -33%
% HR (heart rate) ([1]; 3 mg/kg iv): -31%
% modification of the ECG intervals: PQ (atrioventricular conduction time) ([1]; 3 mg/kg iv): +26%
% modification of the ECG intervals: QRS (intraventricular conduction time) ([1]; 3 mg/kg iv): +11%
% modification of the ECG intervals: QTS ([1]; 3 mg/kg iv): +29%
% modification of the ECG intervals: TP (electrocardiac diastole) ([1]; 3 mg/kg iv): +76%
% fall in heart rate after 1 min (anesthetized rats; 2.5 mg/kg iv): -30%
% fall in heart rate after 10 min (anesthetized rats; 2.5 mg/kg iv): -11%
% fall in arrhythmias (anesthetized rats; 2.5 mg/kg iv): -9%
% fall in heart rate after 1 min (anesthetized rats; 10 mg/kg iv): -50%
% fall in heart rate after 10 min (anesthetized rats; 10 mg/kg iv): -19%
% fall in arrhythmias (anesthetized rats; 10 mg/kg iv): -76%

SMILES: COc1ccc(CCN(C)CCCN2C(=O)c3cccc(OC)c3OC2C)cc1OC.Cl (centres unmarked) [Compound L, 2,3-Dihydro-3-{3-[(methyl)(3,4-dimethoxyphenethyl)amino]propyl}-8-methoxy-2-methyl-4H-1,3-benzoxazin-4-one hydrochloride]
solubility (Solubility in water): 100 mg/mL

SMILES: COc1ccc(CCN(C)CCCN2COc3ccc(Br)cc3C2=O)cc1OC.Cl [Compound K, 6-Bromo-2,3-dihydro-3-{3-[(methyl)(3,4-dimethoxyphenethyl)amino]propyl}-4H-1,3-benzoxazin-4-one hydrochloride]
solubility (Solubility in water): 90 mg/mL

SMILES: COc1ccc(CCN(C)CCCN2COc3c(C)cccc3C2=O)cc1OC.Cl [Compound H, 2,3-Dihydro-3-{3-[(methyl)(3,4-dimethoxyphenethyl)amino]propyl}-8-methyl-4H-1,3-benzoxazin-4-one hydrochloride]
solubility (Solubility in water): 80 mg/mL

SMILES: COc1ccc(CCN(C)CCCN2COc3c(OC)cccc3C2=O)cc1OC.Cl [Compound C, 2,3-Dihydro-3-{3-[(methyl)(3,4-dimethoxyphenethyl)amino]propyl}-8-methoxy-4H-1,3-benzoxazin-4-one hydrochloride]
solubility (Solubility in water): ~100 mg/mL

SMILES: COc1ccc(CCNCCN2COc3cc(OC)c(OC)cc3C2=O)cc1OC.Cl [Compound R, 2,3-Dihydro-6,7-dimethoxy-3-[2-(3,4-dimethoxyphenethylamino)ethyl]-4H-1,3-benzoxazin-4-one hydrochloride]
solubility (Solubility in water): 120 mg/mL

solubility (Solubility in water): 60 mg/mL
SMILES: COc1ccc(CCN(CCCN2COc3cc(OC)c(OC)cc3C2=O)Cc2ccccc2)cc1OC [Example 17, 2,3-Dihydro-6,7-dimethoxy-3-{3-[(benzyl)(3,4-dimethoxyphenethyl)amino]propyl}-4H-1,3-benzoxazin-4-one hydrochloride monohydrate]

SMILES: COc1ccc2c(c1)OCN(CCCN(C)CCc1ccc(OC)c(OC)c1)C2=O.Cl [Compound E, 2,3-Dihydro-3-{3-[(methyl)(3,4-dimethoxyphenethyl)amino]propyl}-7-methoxy-4H-1,3-benzoxazin-4-one hydrochloride]
solubility (Solubility in water): 100 mg/mL

SMILES: COc1ccc(CCN(C)CCCN2COc3cc(OC)c(OC)cc3C2=O)cc1OC.Cl [Compound B, 2,3-Dihydro-6,7-dimethoxy-3-{3-[(methyl)(3,4-dimethoxyphenethyl)amino]propyl}-4H-1,3-benzoxazin-4-one hydrochloride]
inhibition at 0.3 µg/mL (Left atrium): 9%
inhibition at 1 µg/mL (Left atrium): 6.5%
inhibition at 0.3 µg/mL (Right atrium): 27%
inhibition at 1 µg/mL (Right atrium): 64%
LD50 [2]: 48 mg/kg
Heart rate after (conscious dogs): 105 bts/min
Heart rate before (conscious dogs): 175 bts/min
Heart rate Change (conscious dogs): -40%
solubility (Solubility in water): > 100 mg/mL
% ABP (mean arterial blood pressure) ([1]; 1 mg/kg iv): -16%
% HR (heart rate) ([1]; 1 mg/kg iv): -32%
% modification of the ECG intervals: PQ (atrioventricular conduction time) ([1]; 1 mg/kg iv): +9%
% modification of the ECG intervals: QRS (intraventricular conduction time) ([1]; 1 mg/kg iv): +12%
% modification of the ECG intervals: QTS ([1]; 1 mg/kg iv): +38%
% modification of the ECG intervals: TP (electrocardiac diastole) ([1]; 1 mg/kg iv): +95%
% ABP (mean arterial blood pressure) ([1]; 3 mg/kg iv): -34%
% HR (heart rate) ([1]; 3 mg/kg iv): -55%
% modification of the ECG intervals: PQ (atrioventricular conduction time) ([1]; 3 mg/kg iv): +17%
% modification of the ECG intervals: QRS (intraventricular conduction time) ([1]; 3 mg/kg iv): +24%
% modification of the ECG intervals: QTS ([1]; 3 mg/kg iv): +75%
% modification of the ECG intervals: TP (electrocardiac diastole) ([1]; 3 mg/kg iv): +211%
% fall in heart rate after 1 min (anesthetized rats; 2.5 mg/kg iv): -50%
% fall in heart rate after 10 min (anesthetized rats; 2.5 mg/kg iv): -28%
% fall in arrhythmias (anesthetized rats; 2.5 mg/kg iv): -38%
% fall in heart rate after 1 min (anesthetized rats; 10 mg/kg iv): -66%
% fall in heart rate after 10 min (anesthetized rats; 10 mg/kg iv): -60%
% fall in arrhythmias (anesthetized rats; 10 mg/kg iv): -80%

SMILES: NNc1nncc2ccccc12 [hydralazine, reference compound]
heart rate effect of hydralazine (conscious dogs; hydralazine 1 mg/kg iv, conscious dogs): causes tachycardia
